Patent publication US9708314B2, “Heterocyclic amide compound” (NISSAN CHEMICAL INDUSTRIES, LTD., priority 2013, dated 2017)

Legend:
Assay type in all cases: in vivo
[1] = system: directly sowed Oryza sativa; assay: Test Example 3: effect on crop by application to foliage (Wagner pot, water depth 0.1-0.5 cm); conditions: Nineteenth Table; application to foliage; application herbicide amount 320 g/ha
Method in brief: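 Rice-field weeds and directly sown rice were grown 14 days in flooded alluvial soil (water depth 0.1–0.5 cm) at 25–30 °C in a greenhouse. An emulsion formulation diluted to the stated g/ha rate was sprayed onto stems and leaves. Effects were scored on a 0–5 scale (herbicidal ratio bands) three weeks after treatment.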

[2] = system: Abutilon theophrasti; assay: Test Example 4: herbicidal effect by application to foliage (diluvial soil, plastic box); conditions: 320 g/ha; for M (Abutilon theophrasti) herbicidal effect grade: foliage application
Method in brief: (§1)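 Seeds sown in sterilized diluvial soil, covered ~1.5 cm, grown 14 days in greenhouse at 25° C. to 30° C. Emulsion formulation diluted in water to set rate (g/ha) and sprayed onto stems and leaves. Effect scored visually 3 weeks later on 0–5 scale (5 = ≥90% herbicidal ratio, 0 = ≤5%).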

[3] = system: Chenopodium album; assay: as above; conditions: 320 g/ha; for O (Chenopodium album) herbicidal effect grade: foliage application
Method in brief: as §1

[4] = system: Avena fatua; assay: as above; conditions: 320 g/ha; for I (Avena fatua) herbicidal effect grade: foliage application
Method in brief: as §1

[5] = system: Galium spurium; assay: as above; conditions: 320 g/ha; for Q (Galium spurium) herbicidal effect grade: foliage application
Method in brief: as §1

[6] = system: Setaria viridis; assay: as above; conditions: 320 g/ha; for G (Setaria viridis) herbicidal effect grade: foliage application
Method in brief: as §1

[7] = system: Digitaria ciliaris; assay: as above; conditions: 320 g/ha; for F (Digitaria ciliaris) herbicidal effect grade: foliage application
Method in brief: as §1

[8] = system: Amaranthus retroflexus; assay: as above; conditions: 320 g/ha; for N (Amaranthus retroflexus) herbicidal effect grade: foliage application
Method in brief: as §1

[9] = system: Echinochloa crus-galli var. crus-galli; assay: as above; conditions: 320 g/ha; for H (Echinochloa crus-galli var. crus-galli) herbicidal effect grade: foliage application
Method in brief: as §1

[10] = system: Lolium multiflorum Lam.; assay: as above; conditions: 320 g/ha; for K (Lolium multiflorum Lam.) herbicidal effect grade: foliage application
Method in brief: as §1

[11] = system: Apera spica-venti.; assay: as above; conditions: 320 g/ha; for L (Apera spica-venti.) herbicidal effect grade: foliage application
Method in brief: as §1

[12] = system: Veronica persica; assay: as above; conditions: 320 g/ha; for R (Veronica persica) herbicidal effect grade: foliage application
Method in brief: as §1

[13] = system: Stellaria media; assay: as above; conditions: 320 g/ha; for P (Stellaria media) herbicidal effect grade: foliage application
Method in brief: as §1

[14] = system: Alopecurus myosuroides; assay: as above; conditions: 320 g/ha; for J (Alopecurus myosuroides) herbicidal effect grade: foliage application
Method in brief: as §1

[15] = system: directly sowed Oryza sativa; assay: Test Example 4: effect on crop by application to foliage (diluvial soil, plastic box); conditions: 320 g/ha; for d (directly sowed Oryza sativa) effect on crop grade: foliage application
Method in brief: as §1

[16] = system: Zea mays; assay: as above; conditions: 320 g/ha; for b (Zea mays) effect on crop grade: foliage application
Method in brief: as §1

[17] = system: Glycine max; assay: as above; conditions: 320 g/ha; for c (Glycine max) effect on crop grade: foliage application
Method in brief: as §1

[18] = system: Triticum aestivum; assay: as above; conditions: 320 g/ha; for e (Triticum aestivum) effect on crop grade: foliage application
Method in brief: as §1

[19] = system: Beta vulgaris ssp. vulgaris; assay: as above; conditions: 320 g/ha; for f (Beta vulgaris ssp. vulgaris) effect on crop grade: foliage application
Method in brief: as §1

[20] = system: Brassica campestris L.; assay: as above; conditions: 320 g/ha; for g (Brassica campestris L.) effect on crop grade: foliage application
Method in brief: as §1

SMILES | b (effect on crop grade) [1] | M (Abutilon theophrasti) herbicidal effect grade [2] | O (Chenopodium album) herbicidal effect grade [3] | I (Avena fatua) herbicidal effect grade [4] | Q (Galium spurium) herbicidal effect grade [5] | G (Setaria viridis) herbicidal effect grade [6] | F (Digitaria ciliaris) herbicidal effect grade [7] | N (Amaranthus retroflexus) herbicidal effect grade [8] | H (Echinochloa crus-galli var. crus-galli) herbicidal effect grade [9] | K (Lolium multiflorum Lam.) herbicidal effect grade [10] | L (Apera spica-venti.) herbicidal effect grade [11] | R (Veronica persica) herbicidal effect grade [12] | P (Stellaria media) herbicidal effect grade [13] | J (Alopecurus myosuroides) herbicidal effect grade [14] | d (directly sowed Oryza sativa) effect on crop grade [15] | b (Zea mays) effect on crop grade [16] | c (Glycine max) effect on crop grade [17] | e (Triticum aestivum) effect on crop grade [18] | f (Beta vulgaris ssp. vulgaris) effect on crop grade [19] | g (Brassica campestris L.) effect on crop grade [20] | further results
CCn1nc2c(C(=O)Nc3nnnn3C)ccc(C(F)(F)F)n2c1=O [6-004] | 3 (Herbicidal ratio of 40% or more and less than 70%) |  |  |  |  |  |  |  |  |  |  |  |  |  |  |  |  |  |  |  | herbicidal effect, M (Abutilon theophrasti) ([2]; application to foliage): 5 (Herbicidal ratio of 90% or more (almost completely withered)); herbicidal effect, O (Chenopodium album) ([3]; application to foliage): 5 (Herbicidal ratio of 90% or more (almost completely withered)); herbicidal effect, I (Avena fatua) ([4]; application to foliage): 3 (Herbicidal ratio of 40% or more and less than 70%); herbicidal effect, Q (Galium spurium) ([5]; application to foliage): 4 (Herbicidal ratio of 70% or more and less than 90%); herbicidal effect, G (Setaria viridis) ([6]; application to foliage): 4 (Herbicidal ratio of 70% or more and less than 90%); herbicidal effect, F (Digitaria ciliaris) ([7]; application to foliage): 5 (Herbicidal ratio of 90% or more (almost completely withered)); herbicidal effect, N (Amaranthus retroflexus) ([8]; application to foliage): 5 (Herbicidal ratio of 90% or more (almost completely withered)); herbicidal effect, H (Echinochloa crus-galli var. crus-galli) ([9]; application to foliage): 5 (Herbicidal ratio of 90% or more (almost completely withered)); herbicidal effect, K (Lolium multiflorum Lam.) ([10]; application to foliage): 2 (Herbicidal ratio of 20% or more and less than 40%); herbicidal effect, L (Apera spica-venti.) ([11]; application to foliage): 1 (Herbicidal ratio of 5% or more and less than 20%); herbicidal effect, R (Veronica persica) ([12]; application to foliage): 3 (Herbicidal ratio of 40% or more and less than 70%); herbicidal effect, P (Stellaria media) ([13]; application to foliage): 4 (Herbicidal ratio of 70% or more and less than 90%); herbicidal effect, J (Alopecurus myosuroides) ([14]; application to foliage): 1 (Herbicidal ratio of 5% or more and less than 20%); effect on crop, d (directly sowed Oryza sativa) ([15]; application to foliage): 4 (Herbicidal ratio of 70% or more and less than 90%); effect on crop, b (Zea mays) ([16]; application to foliage): 0 (Herbicidal ratio of 5% or less (almost no effect)); effect on crop, c (Glycine max) ([17]; application to foliage): 0 (Herbicidal ratio of 5% or less (almost no effect)); effect on crop, e (Triticum aestivum) ([18]; application to foliage): 1 (Herbicidal ratio of 5% or more and less than 20%); effect on crop, f (Beta vulgaris ssp. vulgaris) ([19]; application to foliage): 2 (Herbicidal ratio of 20% or more and less than 40%); effect on crop, g (Brassica campestris L.) ([20]; application to foliage): 3 (Herbicidal ratio of 40% or more and less than 70%)
CCC(C)Sc1nnc2c(C(=O)Nc3nnnn3C)ccc(C(F)(F)F)n12 (centres unmarked) [2-072] | 1 (Herbicidal ratio of 5% or more and less than 20%) | 5 (Herbicidal ratio of 90% or more (almost completely withered)) | 5 (Herbicidal ratio of 90% or more (almost completely withered)) | 1 (Herbicidal ratio of 5% or more and less than 20%) | 3 (Herbicidal ratio of 40% or more and less than 70%) | 5 (Herbicidal ratio of 90% or more (almost completely withered)) | 5 (Herbicidal ratio of 90% or more (almost completely withered)) | 5 (Herbicidal ratio of 90% or more (almost completely withered)) | 5 (Herbicidal ratio of 90% or more (almost completely withered)) | 1 (Herbicidal ratio of 5% or more and less than 20%) | 3 (Herbicidal ratio of 40% or more and less than 70%) | 5 (Herbicidal ratio of 90% or more (almost completely withered)) | 5 (Herbicidal ratio of 90% or more (almost completely withered)) | 1 (Herbicidal ratio of 5% or more and less than 20%) | 4 (Herbicidal ratio of 70% or more and less than 90%) | 1 (Herbicidal ratio of 5% or more and less than 20%) | 3 (Herbicidal ratio of 40% or more and less than 70%) | 1 (Herbicidal ratio of 5% or more and less than 20%) | 5 (Herbicidal ratio of 90% or more (almost completely withered)) | 4 (Herbicidal ratio of 70% or more and less than 90%) | 
COc1cccc(-c2nnc3c(C(=O)Nc4nnnn4C)ccc(C(F)(F)F)n23)c1 [2-044] | 5 (Herbicidal ratio of 90% or more (almost completely withered)) | 5 (Herbicidal ratio of 90% or more (almost completely withered)) | 5 (Herbicidal ratio of 90% or more (almost completely withered)) | 2 (Herbicidal ratio of 20% or more and less than 40%) | 3 (Herbicidal ratio of 40% or more and less than 70%) | 4 (Herbicidal ratio of 70% or more and less than 90%) | 5 (Herbicidal ratio of 90% or more (almost completely withered)) | 5 (Herbicidal ratio of 90% or more (almost completely withered)) | 5 (Herbicidal ratio of 90% or more (almost completely withered)) | 2 (Herbicidal ratio of 20% or more and less than 40%) | 3 (Herbicidal ratio of 40% or more and less than 70%) | 5 (Herbicidal ratio of 90% or more (almost completely withered)) | 4 (Herbicidal ratio of 70% or more and less than 90%) | 2 (Herbicidal ratio of 20% or more and less than 40%) | 4 (Herbicidal ratio of 70% or more and less than 90%) | 3 (Herbicidal ratio of 40% or more and less than 70%) | 2 (Herbicidal ratio of 20% or more and less than 40%) | 1 (Herbicidal ratio of 5% or more and less than 20%) | 5 (Herbicidal ratio of 90% or more (almost completely withered)) | 3 (Herbicidal ratio of 40% or more and less than 70%) | 
Cn1nnnc1NC(=O)c1ccc(C(F)(F)F)n2c(CC[S+](C)[O-])nnc12 (centres unmarked) [2-058] | 5 (Herbicidal ratio of 90% or more (almost completely withered)) | 5 (Herbicidal ratio of 90% or more (almost completely withered)) | 5 (Herbicidal ratio of 90% or more (almost completely withered)) | 5 (Herbicidal ratio of 90% or more (almost completely withered)) | 5 (Herbicidal ratio of 90% or more (almost completely withered)) | 5 (Herbicidal ratio of 90% or more (almost completely withered)) | 5 (Herbicidal ratio of 90% or more (almost completely withered)) | 5 (Herbicidal ratio of 90% or more (almost completely withered)) | 5 (Herbicidal ratio of 90% or more (almost completely withered)) | 4 (Herbicidal ratio of 70% or more and less than 90%) | 4 (Herbicidal ratio of 70% or more and less than 90%) | 5 (Herbicidal ratio of 90% or more (almost completely withered)) | 5 (Herbicidal ratio of 90% or more (almost completely withered)) | 4 (Herbicidal ratio of 70% or more and less than 90%) | 5 (Herbicidal ratio of 90% or more (almost completely withered)) | 5 (Herbicidal ratio of 90% or more (almost completely withered)) | 3 (Herbicidal ratio of 40% or more and less than 70%) | 5 (Herbicidal ratio of 90% or more (almost completely withered)) | 5 (Herbicidal ratio of 90% or more (almost completely withered)) | 5 (Herbicidal ratio of 90% or more (almost completely withered)) | 
